Measurements from patent US20140323300A1, “HERBICIDAL COMPOUNDS” (SYNGENTA LIMITED, priority 2011, published 2014).
Each block holds one compound with its values, some of them ahead of it.

Tests used:
[1] = tested on: Alopecurus myosuroides (ALOMY); test: Pre-emergence glasshouse herbicide test; assay type: in vivo; details: pre-emergence (sprayed after one day cultivation), 1000 g/h, evaluated after 13 days, five point scale
Method in brief: (§1)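 Damage was rated 13 days after treatment on a five-point scale (1 = 0–19%, 5 = 80–100%). The compound, formulated in 50:50 acetone/water with 0.5% Tween 20, was sprayed at 1000 g/h on pots one day (pre) or 8 days (post) after sowing, kept in a glasshouse at 24/16° C, 14 h light, 65% humidity.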

Solanum nigrum (SOLNI) [2] = test: Pre-emergence glasshouse herbicide test; assay type: in vivo; details: pre-emergence (sprayed after one day cultivation), 1000 g/h, evaluated after 13 days, five point scale
Method in brief: as §1

[3] = tested on: Ipomoea hederacea (IPOHE); test: Pre-emergence glasshouse herbicide test; assay type: in vivo; details: pre-emergence (sprayed after one day cultivation), 1000 g/h, evaluated after 13 days, five point scale
Method in brief: as §1

Setaria faberi (SETFA) [4] = test: Pre-emergence glasshouse herbicide test; assay type: in vivo; details: pre-emergence (sprayed after one day cultivation), 1000 g/h, evaluated after 13 days, five point scale
Method in brief: as §1

[5] = tested on: Echinochloa crus-galli (ECHCG); test: Pre-emergence glasshouse herbicide test; assay type: in vivo; details: pre-emergence (sprayed after one day cultivation), 1000 g/h, evaluated after 13 days, five point scale
Method in brief: as §1

[6] = tested on: Amaranthus retoflexus (AMARE); test: Pre-emergence glasshouse herbicide test; assay type: in vivo; details: pre-emergence (sprayed after one day cultivation), 1000 g/h, evaluated after 13 days, five point scale
Method in brief: as §1

[7] = tested on: Alopecurus myosuroides (ALOMY); test: Post-emergence glasshouse herbicide test; assay type: in vivo; details: post-emergence (sprayed after 8 days cultivation), 1000 g/h, evaluated after 13 days, five point scale
Method in brief: as §1

Solanum nigrum (SOLNI) [8] = test: Post-emergence glasshouse herbicide test; assay type: in vivo; details: post-emergence (sprayed after 8 days cultivation), 1000 g/h, evaluated after 13 days, five point scale
Method in brief: as §1

[9] = tested on: Ipomoea hederacea (IPOHE); test: Post-emergence glasshouse herbicide test; assay type: in vivo; details: post-emergence (sprayed after 8 days cultivation), 1000 g/h, evaluated after 13 days, five point scale
Method in brief: as §1

Setaria faberi (SETFA) [10] = test: Post-emergence glasshouse herbicide test; assay type: in vivo; details: post-emergence (sprayed after 8 days cultivation), 1000 g/h, evaluated after 13 days, five point scale
Method in brief: as §1

[11] = tested on: Echinochloa crus-galli (ECHCG); test: Post-emergence glasshouse herbicide test; assay type: in vivo; details: post-emergence (sprayed after 8 days cultivation), 1000 g/h, evaluated after 13 days, five point scale
Method in brief: as §1

[12] = tested on: Amaranthus retoflexus (AMARE); test: Post-emergence glasshouse herbicide test; assay type: in vivo; details: post-emergence (sprayed after 8 days cultivation), 1000 g/h, evaluated after 13 days, five point scale
Method in brief: as §1

melting point: 144 to 147 °C
SMILES: C=C(C)C1C=NN(c2ccc(C(F)(F)F)cc2S(C)(=O)=O)C(=O)C1=O (stereo not shown) [Compound 1.039, 4-Isopropenyl-1-[2-methylsulfonyl-4-(trifluoromethyl)phenyl]-4H-pyridazine-5,6-dione]
percentage damage caused to the plant, PRE Application ALOMY [1]: 5 (5=80-100%) | percentage damage caused to the plant, PRE Application SOLNI (Solanum nigrum (SOLNI) [2]): 5 (5=80-100%) | percentage damage caused to the plant, PRE Application IPOHE [3]: 5 (5=80-100%) | percentage damage caused to the plant, PRE Application SETFA (Setaria faberi (SETFA) [4]): 5 (5=80-100%) | percentage damage caused to the plant, PRE Application ECHCG [5]: 5 (5=80-100%) | percentage damage caused to the plant, PRE Application AMARE [6]: 5 (5=80-100%) | percentage damage caused to the plant, POST Application ALOMY [7]: 5 (5=80-100%) | percentage damage caused to the plant, POST Application SOLNI (Solanum nigrum (SOLNI) [8]): 5 (5=80-100%) | percentage damage caused to the plant, POST Application IPOHE [9]: 5 (5=80-100%) | percentage damage caused to the plant, POST Application SETFA (Setaria faberi (SETFA) [10]): 5 (5=80-100%) | percentage damage caused to the plant, POST Application ECHCG [11]: 5 (5=80-100%) | percentage damage caused to the plant, POST Application AMARE [12]: 5 (5=80-100%)

SMILES: CS(=O)(=O)c1cc(C(F)(F)F)ccc1-n1ncc(S(C)(=O)=O)c(O)c1=O [Compound 1.042]
percentage damage caused to the plant, PRE Application ALOMY [1]: 1 (1=0-19%) | percentage damage caused to the plant, PRE Application SOLNI (Solanum nigrum (SOLNI) [2]): 2 (2=20-39%) | percentage damage caused to the plant, PRE Application IPOHE [3]: 1 (1=0-19%) | percentage damage caused to the plant, PRE Application SETFA (Setaria faberi (SETFA) [4]): 1 (1=0-19%) | percentage damage caused to the plant, PRE Application ECHCG [5]: 1 (1=0-19%) | percentage damage caused to the plant, PRE Application AMARE [6]: 2 (2=20-39%) | percentage damage caused to the plant, POST Application ALOMY [7]: 1 (1=0-19%) | percentage damage caused to the plant, POST Application SOLNI (Solanum nigrum (SOLNI) [8]): 2 (2=20-39%) | percentage damage caused to the plant, POST Application IPOHE [9]: 1 (1=0-19%) | percentage damage caused to the plant, POST Application SETFA (Setaria faberi (SETFA) [10]): 1 (1=0-19%) | percentage damage caused to the plant, POST Application ECHCG [11]: 1 (1=0-19%) | percentage damage caused to the plant, POST Application AMARE [12]: 2 (2=20-39%)

SMILES: Cc1c(-n2ncc([S+](C)[O-])c(O)c2=O)ccc(S(C)(=O)=O)c1C1=NOCC1 (stereo not shown) [Compound 1.043]
percentage damage caused to the plant, PRE Application ALOMY [1]: 1 (1=0-19%) | percentage damage caused to the plant, PRE Application SOLNI (Solanum nigrum (SOLNI) [2]): 4 (4=60-79%) | percentage damage caused to the plant, PRE Application IPOHE [3]: 3 (3=40-59%) | percentage damage caused to the plant, PRE Application SETFA (Setaria faberi (SETFA) [4]): 3 (3=40-59%) | percentage damage caused to the plant, PRE Application ECHCG [5]: 3 (3=40-59%) | percentage damage caused to the plant, PRE Application AMARE [6]: 5 (5=80-100%) | percentage damage caused to the plant, POST Application ALOMY [7]: 1 (1=0-19%) | percentage damage caused to the plant, POST Application SOLNI (Solanum nigrum (SOLNI) [8]): 4 (4=60-79%) | percentage damage caused to the plant, POST Application IPOHE [9]: 3 (3=40-59%) | percentage damage caused to the plant, POST Application SETFA (Setaria faberi (SETFA) [10]): 3 (3=40-59%) | percentage damage caused to the plant, POST Application ECHCG [11]: 3 (3=40-59%) | percentage damage caused to the plant, POST Application AMARE [12]: 5 (5=80-100%)

SMILES: CC(=O)NC(C)(C)Cc1cnn(-c2ccc(C(F)(F)F)cc2S(C)(=O)=O)c(=O)c1O [Compound 1.044]
percentage damage caused to the plant, PRE Application ALOMY [1]: 1 (1=0-19%) | percentage damage caused to the plant, PRE Application SOLNI (Solanum nigrum (SOLNI) [2]): 4 (4=60-79%) | percentage damage caused to the plant, PRE Application IPOHE [3]: 4 (4=60-79%) | percentage damage caused to the plant, PRE Application SETFA (Setaria faberi (SETFA) [4]): 2 (2=20-39%) | percentage damage caused to the plant, PRE Application ECHCG [5]: 5 (5=80-100%) | percentage damage caused to the plant, PRE Application AMARE [6]: 5 (5=80-100%) | percentage damage caused to the plant, POST Application ALOMY [7]: 1 (1=0-19%) | percentage damage caused to the plant, POST Application SOLNI (Solanum nigrum (SOLNI) [8]): 4 (4=60-79%) | percentage damage caused to the plant, POST Application IPOHE [9]: 4 (4=60-79%) | percentage damage caused to the plant, POST Application SETFA (Setaria faberi (SETFA) [10]): 2 (2=20-39%) | percentage damage caused to the plant, POST Application ECHCG [11]: 5 (5=80-100%) | percentage damage caused to the plant, POST Application AMARE [12]: 5 (5=80-100%)

SMILES: CCc1cnn(-c2ccc(C(F)(F)F)cc2S(C)(=O)=O)c(=O)c1O [Compound 1.045]
percentage damage caused to the plant, PRE Application ALOMY [1]: 5 (5=80-100%) | percentage damage caused to the plant, PRE Application SOLNI (Solanum nigrum (SOLNI) [2]): 5 (5=80-100%) | percentage damage caused to the plant, PRE Application IPOHE [3]: 5 (5=80-100%) | percentage damage caused to the plant, PRE Application SETFA (Setaria faberi (SETFA) [4]): 5 (5=80-100%) | percentage damage caused to the plant, PRE Application ECHCG [5]: 5 (5=80-100%) | percentage damage caused to the plant, PRE Application AMARE [6]: 5 (5=80-100%) | percentage damage caused to the plant, POST Application ALOMY [7]: 5 (5=80-100%) | percentage damage caused to the plant, POST Application SOLNI (Solanum nigrum (SOLNI) [8]): 5 (5=80-100%) | percentage damage caused to the plant, POST Application IPOHE [9]: 5 (5=80-100%) | percentage damage caused to the plant, POST Application SETFA (Setaria faberi (SETFA) [10]): 5 (5=80-100%) | percentage damage caused to the plant, POST Application ECHCG [11]: 5 (5=80-100%) | percentage damage caused to the plant, POST Application AMARE [12]: 5 (5=80-100%)

SMILES: CS(=O)(=O)c1cc(Cl)ccc1-n1ncc(S(C)(=O)=O)c(O)c1=O [Compound 1.047]
percentage damage caused to the plant, PRE Application ALOMY [1]: 1 (1=0-19%) | percentage damage caused to the plant, PRE Application SOLNI (Solanum nigrum (SOLNI) [2]): 2 (2=20-39%) | percentage damage caused to the plant, PRE Application IPOHE [3]: 2 (2=20-39%) | percentage damage caused to the plant, PRE Application SETFA (Setaria faberi (SETFA) [4]): 1 (1=0-19%) | percentage damage caused to the plant, PRE Application ECHCG [5]: 1 (1=0-19%) | percentage damage caused to the plant, PRE Application AMARE [6]: 2 (2=20-39%) | percentage damage caused to the plant, POST Application ALOMY [7]: 1 (1=0-19%) | percentage damage caused to the plant, POST Application SOLNI (Solanum nigrum (SOLNI) [8]): 2 (2=20-39%) | percentage damage caused to the plant, POST Application IPOHE [9]: 2 (2=20-39%) | percentage damage caused to the plant, POST Application SETFA (Setaria faberi (SETFA) [10]): 1 (1=0-19%) | percentage damage caused to the plant, POST Application ECHCG [11]: 1 (1=0-19%) | percentage damage caused to the plant, POST Application AMARE [12]: 2 (2=20-39%)

SMILES: CSc1cnn(-c2ccc(Cl)cc2S(C)(=O)=O)c(=O)c1O [Compound 1.048]
percentage damage caused to the plant, PRE Application ALOMY [1]: 1 (1=0-19%) | percentage damage caused to the plant, PRE Application SOLNI (Solanum nigrum (SOLNI) [2]): 4 (4=60-79%) | percentage damage caused to the plant, PRE Application IPOHE [3]: 3 (3=40-59%) | percentage damage caused to the plant, PRE Application SETFA (Setaria faberi (SETFA) [4]): 2 (2=20-39%) | percentage damage caused to the plant, PRE Application ECHCG [5]: 3 (3=40-59%) | percentage damage caused to the plant, PRE Application AMARE [6]: 4 (4=60-79%) | percentage damage caused to the plant, POST Application ALOMY [7]: 1 (1=0-19%) | percentage damage caused to the plant, POST Application SOLNI (Solanum nigrum (SOLNI) [8]): 4 (4=60-79%) | percentage damage caused to the plant, POST Application IPOHE [9]: 3 (3=40-59%) | percentage damage caused to the plant, POST Application SETFA (Setaria faberi (SETFA) [10]): 2 (2=20-39%) | percentage damage caused to the plant, POST Application ECHCG [11]: 3 (3=40-59%) | percentage damage caused to the plant, POST Application AMARE [12]: 4 (4=60-79%)

SMILES: C=Cc1cnn(-c2ccc(C(F)(F)F)cc2S(C)(=O)=O)c(=O)c1O [Compound 1.053]
percentage damage caused to the plant, PRE Application ALOMY [1]: 4 (4=60-79%) | percentage damage caused to the plant, PRE Application SOLNI (Solanum nigrum (SOLNI) [2]): 5 (5=80-100%) | percentage damage caused to the plant, PRE Application IPOHE [3]: 5 (5=80-100%) | percentage damage caused to the plant, PRE Application SETFA (Setaria faberi (SETFA) [4]): 5 (5=80-100%) | percentage damage caused to the plant, PRE Application ECHCG [5]: 5 (5=80-100%) | percentage damage caused to the plant, PRE Application AMARE [6]: 5 (5=80-100%) | percentage damage caused to the plant, POST Application ALOMY [7]: 4 (4=60-79%) | percentage damage caused to the plant, POST Application SOLNI (Solanum nigrum (SOLNI) [8]): 5 (5=80-100%) | percentage damage caused to the plant, POST Application IPOHE [9]: 5 (5=80-100%) | percentage damage caused to the plant, POST Application SETFA (Setaria faberi (SETFA) [10]): 5 (5=80-100%) | percentage damage caused to the plant, POST Application ECHCG [11]: 5 (5=80-100%) | percentage damage caused to the plant, POST Application AMARE [12]: 5 (5=80-100%)
